Tests used:
[1] = test system: IRF3 signaling pathway in THP1-Lucia™ ISG cells; test: THP1-Lucia ISG reporter assay: induction of IRF3-dependent gene expression (secreted luciferase); assay type: cell-based, human; conditions: PMA-differentiated cells, 18 h after stimulation
In short: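 PMA-differentiated THP-1 reporter cells (ISRE/ISG54 promoter driving secreted luciferase), plus CRISPR IRF3−/− line, treated with compounds at 5–20 μM (mostly 10 μM). Luciferase measured 18 h later; values are fold increase over untreated background, binned from <2.4 to ≥40.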

[2] = test system: murine CT26 colon carcinoma cells; test: RIG-I dependent CXCL10 secretion by CT26 cells (ELISA); assay type: cell-based; conditions: supernatant 24 h after stimulation
In short: (§1)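 CT26 murine colon carcinoma cells, parental or CRISPR RIG-I−/−, seeded and grown 24 hr at 37° C, then treated with compounds at 10 μM, or at 5 or 20 μM for some. Secreted CXCL10 measured by ELISA in supernatants 24 h after treatment and reported in pg/mL bands.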

[3] = test system: IRF3-deficient THP1-Lucia™ ISG IRF3−/− cells; test: THP1-Lucia ISG IRF3−/− reporter assay (IRF3-deficient control cells); assay type: cell-based, human; conditions: compound 5 to 20 μM, 18 h
Procedure: The promoter was comprised of five IFN-stimulated response elements (ISRE) fused to an ISG54 minimal promoter which is unresponsive to NF-kB or AP-1 pathways. […] The IRF3-deficient THP1-Lucia™ ISG IRF3−/−reporter cell line was generated by CRISPR technology from the parent THP1-Lucia™ ISG reporter cell line.
THP1-Lucia™ ISG cells and IRF3-deficient THP1-Lucia™ ISG IRF3−/−cells were differentiated with PMA (100 ng/ml) and stimulated with compounds at the indicated concentrations (5 to 20 μM), positive control, or not treated (background). Luciferase secretion was quantified using the QUANTI-Luc luciferase assay system (InvivoGen) 18 h after stimulation. Data are shown as fold increase luciferase activity over background in Table 7 and represent the IRF3-dependent ISG54 promoter activity by the THP1-Lucia™ ISG cells in response to compounds. […] The fold increase of compounds (10 μM, *20 μM, **5 μM) induced IRF3 dependent luciferase activity is indicated as follows: “≠” indicates less than 2.4 fold increase; “+” indicates a 2.4-4.9 fold increase; “++” indicates a 5-9.9 fold increase; “+++” indicates a 10-19 fold increase; “++++” indicates a 20-39 fold increase; “+++++” indicates greater than or equal to 40 fold increase.

[4] = test system: RIG-I deficient CT26 RIG-I−/− cells; test: CXCL10 secretion by RIG-I deficient CT26 RIG-I−/− cells (ELISA); assay type: cell-based, murine; conditions: compound 5 to 20 μM, 24 h; note: key: −: about 0 pg/mL of CXCL10, or below the level of quantitation
In short: as §1

| Molecule | fold increase of IRF3-dependent luciferase activity over background, THP1 ISG ([1]; 10 μM compound) | CXCL10 secretion, CT26 ([2]; 10 μM compound) | fold increase of luciferase activity, THP1 ISG IRF3−/− [3] | CXCL10 secretion, CT26 RIG-I−/− [4] | fold increase of IRF3-dependent luciferase activity over background, THP1 ISG ([1]; 20 μM compound (*)) | CXCL10 secretion, CT26 ([2]; 20 μM compound (*)) | CXCL10 secretion, CT26 ([2]; 5 μM compound (**)) |
| --- | --- | --- | --- | --- | --- | --- | --- |
| O=C(Nc1cc2ccc3scnc3c2s1)c1cc2ccsc2cc1OCCCCN1CCOCC1 [Example 66, N-{5,12-dithia-3-azatricyclo[7.3.0.0^2,^6]dodeca-1,3,6,8,10-pentaen-11-yl}-6-[4-(morpholin-4-yl)butoxy]-1-benzothiophene-5-carboxamide] | + (a 2.4-4.9 fold increase) | +++++ (greater than or equal to 1600 pg/ml) | − (less than 0.5 fold above baseline was considered below the level of quantitation) | − |  |  |  |
| O=C(Nc1cc2ccc3scnc3c2s1)c1cc2ccccc2cc1OCCN1CCOCC1 [Example 55, N-{5,12-dithia-3-azatricyclo[7.3.0.0^2,^6]dodeca-1,3,6,8,10-pentaen-11-yl}-3-[2-(morpholin-4-yl)ethoxy]naphthalene-2-carboxamide] | +++ (a 10-19 fold increase) | ≠ (less than 100 pg/mL) | − (less than 0.5 fold above baseline was considered below the level of quantitation) | − |  |  |  |
| O=C(Nc1nc2ccc3occc3c2s1)c1cc2ccccc2cc1OCCCCN1CCOCC1 [Example 50, 3-[4-(morpholin-4-yl)butoxy]-N-{10-oxa-3-thia-5-azatricyclo[7.3.0.0^2,^6]dodeca-1,4,6,8,11-pentaen-4-yl}naphthalene-2-carboxamide] | +++ (a 10-19 fold increase) | ++ (200-399 pg/mL) | − (less than 0.5 fold above baseline was considered below the level of quantitation) | − |  |  |  |
| O=C(Nc1nc2ccc3scnc3c2o1)c1cc2ccccc2cc1OCCN1CCOCC1 [Example 58, 3-[2-(morpholin-4-yl)ethoxy]-N-{3-oxa-10-thia-5,12-diazatricyclo [7.3.0.0^2,^6]dodeca-1,4,6,8,11-pentaen-4-yl}naphthalene-2-carboxamide] | + (a 2.4-4.9 fold increase) | + (100-199 pg/mL) | − (less than 0.5 fold above baseline was considered below the level of quantitation) | − |  |  |  |
| O=C(Nc1nc2ccc3scnc3c2o1)c1cc2ccccc2cc1OCCCCN1CCOCC1 [Example 59, 3-[4-(morpholin-4-yl)butoxy]-N-{3-oxa-10-thia-5,12-diazatricyclo [7.3.0.0^2,^6]dodeca-1,4,6,8,11-pentaen-4-yl}naphthalene-2-carboxamide] | ++ (a 5-9.9 fold increase) | +++++ (greater than or equal to 1600 pg/ml) | − (less than 0.5 fold above baseline was considered below the level of quantitation) | − |  |  |  |
| O=C(Nc1nc2c(ccc3scnc32)[nH]1)c1ccc2ccccc2c1 [Example 48, N-{5-thia-3,10,12-triazatricyclo[7.3.0.0^2,^6]dodeca-1,3,6,8,11-pentaen-11-yl}naphthalene-2-carboxamide] |  |  | − (less than 0.5 fold above baseline was considered below the level of quantitation) | − | ++* (a 5-9.9 fold increase) | ++++* (800 to 1599 pg/mL) |  |
| N-(3-bromophenyl)-11-methyl-3,10-dithia-5,12-diazatricyclo[7.3.0.0^2,^6]dodeca-1,4,6,8,11-pentaene-4-carboxamide [Example 10] | + (a 2.4-4.9 fold increase) | +++ (400-799 pg/mL) | − (less than 0.5 fold above baseline was considered below the level of quantitation) | − |  |  |  |
| O=C(Nc1nc2ccc3ocnc3c2s1)c1cc2ccccc2cc1OCCN1CCOCC1 [Example 52, 3-[2-(morpholin-4-yl)ethoxy]-N-{10-oxa-3-thia-5,12-diazatricyclo[7.3.0.0^2,^6]dodeca-1,4,6,8,11-pentaen-4-yl}naphthalene-2-carboxamide] | + (a 2.4-4.9 fold increase) | + (100-199 pg/mL) | − (less than 0.5 fold above baseline was considered below the level of quantitation) | − |  |  |  |
| O=C(Nc1cc2ccc3scnc3c2s1)c1cc2c(cc1OCCN1CCOCC1)OCO2 [Example 63, N-{5,12-dithia-3-azatricyclo[7.3.0.0^2,^6]dodeca-1,3,6,8,10-pentaen-11-yl}-6-[2-(morpholin-4-yl)ethoxy]-2H-1,3-benzodioxole-5-carboxamide] | ≠ (less than 2.4 fold increase) | ≠ (less than 100 pg/mL) | − (less than 0.5 fold above baseline was considered below the level of quantitation) | − |  |  |  |
| O=C(Nc1cc2ccc3scnc3c2s1)c1cc2ccccc2cc1OCCCCN1CCOCC1 [Example 54, N-{5,12-dithia-3-azatricyclo[7.3.0.0^2,^6]dodeca-1,3,6,8,10-pentaen-11-yl}-3-[4-(morpholin-4-yl)butoxy]naphthalene-2-carboxamide] | +++ (a 10-19 fold increase) | ++++ (800 to 1599 pg/mL) | − (less than 0.5 fold above baseline was considered below the level of quantitation) | − |  |  |  |
| O=C(Nc1nc2ccc3sccc3c2s1)c1cc2ccccc2cc1OCCCCN1CCOCC1 [Example 49, N-{3,10-dithia-5-azatricyclo[7.3.0.0^2,^6]dodeca-1,4,6,8,11-pentaen-4-yl}-3-[4-(morpholin-4-yl)butoxy]naphthalene-2-carboxamide] | +++ (a 10-19 fold increase) | ++++ (800 to 1599 pg/mL) | − (less than 0.5 fold above baseline was considered below the level of quantitation) | − |  |  |  |
| O=C(Nc1cc2ccc3scnc3c2o1)c1cc2ccccc2cc1OCCCCN1CCOCC1 [Example 56, 3-[4-(morpholin-4-yl)butoxy]-N-{12-oxa-5-thia-3-azatricyclo [7.3.0.0^2,^6]dodeca-1,3,6,8,10-pentaen-11-yl}naphthalene-2-carboxamide] | + (a 2.4-4.9 fold increase) | +++ (400-799 pg/mL) | − (less than 0.5 fold above baseline was considered below the level of quantitation) | − |  |  |  |
| N-{5,12-dithia-3-azatricyclo[7.3.0.0^2,^6]dodeca-1,3,6,8,10-pentaen-11-yl}-3-[2-(morpholin-4-yl)ethoxy]-[1,1′-biphenyl]-4-carboxamide [Example 61] | ++++ (a 20-39 fold increase) |  | − (less than 0.5 fold above baseline was considered below the level of quantitation) | − |  |  | ++** (200-399 pg/mL) |
| O=C(Nc1nc2ccc3occc3c2s1)c1cc2ccccc2cc1OCCN1CCOCC1 [Example 51, 3-[2-(morpholin-4-yl)ethoxy]-N-{10-oxa-3-thia-5-azatricyclo[7.3.0.0^2,^6]dodeca-1,4,6,8,11-pentaen-4-yl}naphthalene-2-carboxamide] | +++ (a 10-19 fold increase) | +++ (400-799 pg/mL) | − (less than 0.5 fold above baseline was considered below the level of quantitation) | − |  |  |  |
| O=C(Nc1cc2ccc3scnc3c2o1)c1cc2ccccc2cc1OCCN1CCOCC1 [Example 57, 3-[2-(morpholin-4-yl)ethoxy]-N-{12-oxa-5-thia-3-azatricyclo [7.3.0.0^2,^6]dodeca-1,3,6,8,10-pentaen-11-yl}naphthalene-2-carboxamide] | +++ (a 10-19 fold increase) |  | − (less than 0.5 fold above baseline was considered below the level of quantitation) | − |  | ++* (200-399 pg/mL) |  |
